In patent US7083655B2, “Hair dye composition” (Kao Corporation, priority 2002, dated 2006):

Experiment: Measurement of pKa value (spectrophotometric titration)
Type: physicochemical
Conditions: DMF/water (1/1) solution, 2×10^−5 mol/l, titrated from pH 2 with NaOH, UV-visible spectrum, read-out: pKa value determined
Method: pKa values of the azo dyes described below were determined by the following method; The dye was dissolved in a solution of a DMF/water (1/1) volume ratio to a final concentration of 2×10^−5 mol/l. After the resulting solution was adjusted to pH 2, using 1.0 mol/l hydrochloric acid, the solution was titrated with aqueous 1.0 mol/l sodium hydroxide solution. Recording the change of the visible ultra-violet absorption spectrum, the inflection point was determined by regression analysis.

Question: For `CCSc1nsc(/N=N/c2cc(Cl)c(O)cc2Cl)n1` [Dye D-38], which pKa is on record?
Answer: 3.5

Question: For `Cc1cc(/N=N/c2snc(C)c2C#N)ccc1O` [Dye D-37], which pKa is on record?
Answer: 6.37

Question: For `CCSc1nsc(/N=N/c2cc(Cl)c(O)c(NC(=O)CC)c2)n1` [Dye D-30], which pKa is on record?
Answer: 3.05

Question: For `CC(=O)Nc1cc(/N=N/c2nncs2)ccc1O` [Dye D-29], which pKa is on record?
Answer: 6.04

Question: With `Oc1c(Cl)cc(/N=N/c2nncs2)cc1Cl` [Dye D-56] as the molecule, how does the pKa read?
Answer: 3.56

Question: For `Cc1nsc(/N=N/c2ccc(O)c(Cl)c2)c1C#N` [Dye D-41], which pKa is on record?
Answer: 5.02

Question: Which pKa does the source give for `CC(C)CSc1nnc(/N=N/c2cc(Cl)c(O)c(Cl)c2Cl)s1` [Dye D-45] here?
Answer: 2.28

Question: For `COc1cc(/N=N/c2snc(C)c2C#N)ccc1O` [Dye D-39], which pKa is on record?
Answer: 5.52

Question: With `CC(=O)Nc1cc(/N=N/c2nncs2)c(NC(C)=O)cc1O` [Dye D-46] as the molecule, how does the pKa read?
Answer: 5.15

Question: Which pKa does the source give for `Cc1nsc(/N=N/c2cc(F)c(O)c(F)c2)c1C#N` [Dye D-43] here?
Answer: 3.9

Question: Which pKa does the source give for `Oc1cc(Cl)c(/N=N/c2nc3ccc(Cl)cc3s2)cc1Cl` [Dye D-40] here?
Answer: 4.46

Same assay, conditions: DMF/water (1/1), 2×10^−5 mol/l, titrated from pH 2 with NaOH, UV-visible spectrum

Question: Which pKa value determined does the source give for `Oc1c(NCOc2ccncc2)cc(/N=N/c2nc(-c3ccccc3)no2)c2ccccc12` [Dye D-49] here?
Answer: 5.39

Question: For `Cc1cc(/N=N/c2nc(-c3cccc(NS(C)(=O)=O)c3)ns2)cc(NCOc2ccccc2NS(C)(=O)=O)c1O` [Dye D-34], which pKa value determined is on record?
Answer: 4.39
